Laboratory results taken from PubChem BioAssay AID1963836 (Molecular Pharmacology Branch, DTP, NCI, 2024).
pIC50: −log10 of the molar value.

Tested on: 857933-349-R-J2-PDC complex spheroid viability
Experiment: Anticancer human tumor 857933-349-R-J2-PDC patient-derived colon adenocarcinoma cell line growth inhibition [POLQ]
Settings: for pIC50: curve of first compound; for viability, T/C: stronger effect = lower value
Outline: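 Complex spheroid viability model combining PDC tumour cells with endothelial (HUVEC) and MSC stromal cells. Novobiocin, ART-558 or RP6685 were tested singly and in combination with standard and investigational anticancer drugs. Each was titrated in half-log steps from near clinical Cmax, or from 10 microM where Cmax was unknown.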

[1] = second compound 0.0316 µM, first compound 0.0316 µM
[2] = second compound 0.0316 µM, first compound 0.1 µM
[3] = second compound 0.0316 µM, first compound 0.316 µM
[4] = second compound 0.0316 µM, first compound 1 µM
[5] = second compound 0.0316 µM, first compound 3.16 µM
[6] = second compound 0.0316 µM, first compound 10 µM
[7] = second compound 0.1 µM, first compound 0.0316 µM
[8] = second compound 0.1 µM, first compound 0.1 µM
[9] = second compound 0.1 µM, first compound 0.316 µM
[10] = second compound 0.1 µM, first compound 1 µM
[11] = second compound 0.1 µM, first compound 3.16 µM
[12] = second compound 0.1 µM, first compound 10 µM
[13] = second compound 0.316 µM, first compound 0.0316 µM
[14] = second compound 0.316 µM, first compound 0.1 µM
[15] = second compound 0.316 µM, first compound 0.316 µM
[16] = second compound 0.316 µM, first compound 1 µM
[17] = second compound 0.316 µM, first compound 3.16 µM
[18] = second compound 0.316 µM, first compound 10 µM
[19] = second compound 1 µM, first compound 0.0316 µM
[20] = second compound 1 µM, first compound 0.1 µM
[21] = second compound 1 µM, first compound 0.316 µM
[22] = second compound 1 µM, first compound 1 µM
[23] = second compound 1 µM, first compound 3.16 µM
[24] = second compound 1 µM, first compound 10 µM
[25] = second compound 3.16 µM, first compound 0.0316 µM
[26] = second compound 3.16 µM, first compound 0.1 µM
[27] = second compound 3.16 µM, first compound 0.316 µM
[28] = second compound 3.16 µM, first compound 1 µM
[29] = second compound 3.16 µM, first compound 3.16 µM
[30] = second compound 3.16 µM, first compound 10 µM
[31] = second compound 10 µM, first compound 0.0316 µM
[32] = second compound 10 µM, first compound 0.1 µM
[33] = second compound 10 µM, first compound 0.316 µM
[34] = second compound 10 µM, first compound 1 µM
[35] = second compound 10 µM, first compound 3.16 µM
[36] = second compound 10 µM, first compound 10 µM
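Also: spheroids exposed to compounds for seven days before readout.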

Question: `CCc1cc2c(N3CCc4c(cc(Cn5ccnc5)cc4-c4cn(C)nc4C(F)(F)F)C3=O)cc(C)nc2c(OC)n1` + Cc1cccc(N(C)C(=O)C2C(O)CCN2c2nc(C)cc(C(F)(F)F)c2C#N)c1 was tested. Which pIC50 (second compound 0.0316 µM) did it give?
Answer: The pIC50 was < 5.00.

Question: And the pIC50 (second compound 0.1 µM)?
Answer: The pIC50 was < 5.00.

Question: And the pIC50 (second compound 0.316 µM)?
Answer: The pIC50 was < 5.00.

Question: And the pIC50 (second compound 1 µM)?
Answer: Its pIC50 is < 5.00.

Question: And the pIC50 (second compound 3.16 µM)?
Answer: Its pIC50 is < 5.00.

Question: What about the pIC50 (second compound 10 µM) of the same compound?
Answer: The pIC50 was < 5.00.

Question: What about the viability, T/C [1] of the same compound?
Answer: The viability, T/C was 106%.

Question: What about the viability, T/C [2] of the same compound?
Answer: Its viability, T/C is 93.2%.

Question: And the viability, T/C [3]?
Answer: Its viability, T/C is 99%.

Question: What about the viability, T/C [4] of the same compound?
Answer: The viability, T/C was 79.9%.

Question: What about the viability, T/C [5] of the same compound?
Answer: Its viability, T/C is 75.1%.

Question: And the viability, T/C [6]?
Answer: The viability, T/C was 62.3%.

Question: What about the viability, T/C [7] of the same compound?
Answer: Its viability, T/C is 106%.

Question: And the viability, T/C [8]?
Answer: Its viability, T/C is 103%.

Question: What about the viability, T/C [9] of the same compound?
Answer: Its viability, T/C is 78.5%.

Question: What about the viability, T/C [10] of the same compound?
Answer: The viability, T/C was 82%.

Question: And the viability, T/C [11]?
Answer: The viability, T/C was 77.6%.

Question: What about the viability, T/C [12] of the same compound?
Answer: The viability, T/C was 68.8%.

Question: And the viability, T/C [13]?
Answer: The viability, T/C was 100%.

Question: What about the viability, T/C [14] of the same compound?
Answer: The viability, T/C was 89.6%.

Question: What about the viability, T/C [15] of the same compound?
Answer: The viability, T/C was 83.5%.

Question: And the viability, T/C [16]?
Answer: Its viability, T/C is 82.8%.

Question: What about the viability, T/C [17] of the same compound?
Answer: The viability, T/C was 80.3%.

Question: What about the viability, T/C [18] of the same compound?
Answer: The viability, T/C was 61.6%.

Question: What about the viability, T/C [19] of the same compound?
Answer: The viability, T/C was 99.6%.

Question: And the viability, T/C [20]?
Answer: Its viability, T/C is 83%.

Question: And the viability, T/C [21]?
Answer: Its viability, T/C is 86.3%.

Question: And the viability, T/C [22]?
Answer: Its viability, T/C is 85.2%.

Question: And the viability, T/C [23]?
Answer: The viability, T/C was 73.8%.

Question: And the viability, T/C [24]?
Answer: Its viability, T/C is 61.9%.

Question: What about the viability, T/C [25] of the same compound?
Answer: The viability, T/C was 107%.

Question: And the viability, T/C [26]?
Answer: The viability, T/C was 91.3%.

Question: And the viability, T/C [27]?
Answer: Its viability, T/C is 82.7%.

Question: And the viability, T/C [28]?
Answer: The viability, T/C was 77.8%.

Question: What about the viability, T/C [29] of the same compound?
Answer: Its viability, T/C is 60.2%.

Question: What about the viability, T/C [30] of the same compound?
Answer: Its viability, T/C is 55.1%.

Question: What about the viability, T/C [31] of the same compound?
Answer: Its viability, T/C is 95.4%.

Question: What about the viability, T/C [32] of the same compound?
Answer: The viability, T/C was 99.9%.

Question: What about the viability, T/C [33] of the same compound?
Answer: The viability, T/C was 92.5%.

Question: And the viability, T/C [34]?
Answer: Its viability, T/C is 72.6%.

Question: What about the viability, T/C [35] of the same compound?
Answer: Its viability, T/C is 67.6%.

Question: What about the viability, T/C [36] of the same compound?
Answer: Its viability, T/C is 62.8%.

Question: With `COc1cc2cc(C(=O)CCC(=O)O)sc2cc1OC` + Cc1cccc(N(C)C(=O)C2C(O)CCN2c2nc(C)cc(C(F)(F)F)c2C#N)c1 as the compound, how does the pIC50 (second compound 0.0316 µM) read?
Answer: Its pIC50 is < 5.00.

Question: And the pIC50 (second compound 0.1 µM)?
Answer: Its pIC50 is < 5.00.

Question: And the pIC50 (second compound 0.316 µM)?
Answer: Its pIC50 is < 5.00.

Question: And the pIC50 (second compound 1 µM)?
Answer: Its pIC50 is < 5.00.

Question: What about the pIC50 (second compound 3.16 µM) of the same compound?
Answer: Its pIC50 is < 5.00.

Question: What about the pIC50 (second compound 10 µM) of the same compound?
Answer: The pIC50 was < 5.00.

Question: And the viability, T/C [1]?
Answer: The viability, T/C was 97.6%.

Question: What about the viability, T/C [2] of the same compound?
Answer: The viability, T/C was 95.1%.

Question: What about the viability, T/C [3] of the same compound?
Answer: Its viability, T/C is 93.6%.

Question: What about the viability, T/C [4] of the same compound?
Answer: Its viability, T/C is 97.7%.

Question: What about the viability, T/C [5] of the same compound?
Answer: The viability, T/C was 96.9%.

Question: And the viability, T/C [6]?
Answer: The viability, T/C was 84.1%.

Question: What about the viability, T/C [7] of the same compound?
Answer: Its viability, T/C is 94.8%.

Question: And the viability, T/C [8]?
Answer: Its viability, T/C is 93%.

Question: What about the viability, T/C [9] of the same compound?
Answer: Its viability, T/C is 102%.

Question: And the viability, T/C [10]?
Answer: Its viability, T/C is 102%.

Question: What about the viability, T/C [11] of the same compound?
Answer: The viability, T/C was 86.8%.

Question: What about the viability, T/C [12] of the same compound?
Answer: Its viability, T/C is 87.2%.

Question: What about the viability, T/C [13] of the same compound?
Answer: The viability, T/C was 88.8%.

Question: And the viability, T/C [14]?
Answer: Its viability, T/C is 93.8%.

Question: What about the viability, T/C [15] of the same compound?
Answer: Its viability, T/C is 89.9%.

Question: What about the viability, T/C [16] of the same compound?
Answer: Its viability, T/C is 89.4%.

Question: What about the viability, T/C [17] of the same compound?
Answer: Its viability, T/C is 87.9%.

Question: What about the viability, T/C [18] of the same compound?
Answer: Its viability, T/C is 76.5%.

Question: And the viability, T/C [19]?
Answer: Its viability, T/C is 89.4%.

Question: What about the viability, T/C [20] of the same compound?
Answer: Its viability, T/C is 96.5%.

Question: What about the viability, T/C [21] of the same compound?
Answer: The viability, T/C was 100%.

Question: And the viability, T/C [22]?
Answer: The viability, T/C was 96.9%.

Question: And the viability, T/C [23]?
Answer: The viability, T/C was 101%.

Question: What about the viability, T/C [24] of the same compound?
Answer: The viability, T/C was 92.1%.

Question: And the viability, T/C [25]?
Answer: Its viability, T/C is 104%.

Question: What about the viability, T/C [26] of the same compound?
Answer: Its viability, T/C is 106%.

Question: And the viability, T/C [27]?
Answer: The viability, T/C was 90.4%.

Question: What about the viability, T/C [28] of the same compound?
Answer: Its viability, T/C is 101%.

Question: What about the viability, T/C [29] of the same compound?
Answer: Its viability, T/C is 100%.

Question: What about the viability, T/C [30] of the same compound?
Answer: Its viability, T/C is 86.6%.

Question: What about the viability, T/C [31] of the same compound?
Answer: The viability, T/C was 84.7%.

Question: And the viability, T/C [32]?
Answer: Its viability, T/C is 87.6%.

Question: And the viability, T/C [33]?
Answer: Its viability, T/C is 81.6%.

Question: And the viability, T/C [34]?
Answer: The viability, T/C was 105%.

Question: What about the viability, T/C [35] of the same compound?
Answer: Its viability, T/C is 88.8%.

Question: What about the viability, T/C [36] of the same compound?
Answer: Its viability, T/C is 85.6%.

Question: Which results are given for `COc1ccc([C@@H](O)c2cc(-c3ncnc4cc(N5CCOCC5)ccc34)c(F)cc2Cl)nn1` + Cc1cccc(N(C)C(=O)C2C(O)CCN2c2nc(C)cc(C(F)(F)F)c2C#N)c1?
Answer: pIC50 (second compound 0.0316 µM): < 5.00; pIC50 (second compound 0.1 µM): < 5.00; pIC50 (second compound 0.316 µM): < 5.00; pIC50 (second compound 1 µM): < 5.00; pIC50 (second compound 3.16 µM): 5.07; pIC50 (second compound 10 µM): < 5.00; viability, T/C [1]: 118%; viability, T/C [2]: 90.8%; viability, T/C [3]: 88.6%; viability, T/C [4]: 73.4%; viability, T/C [5]: 71.6%; viability, T/C [6]: 64.2%; viability, T/C [7]: 91.8%; viability, T/C [8]: 114%; viability, T/C [9]: 91.1%; viability, T/C [10]: 79%; viability, T/C [11]: 72.8%; viability, T/C [12]: 57.7%; viability, T/C [13]: 110%; viability, T/C [14]: 116%; viability, T/C [15]: 83.6%; viability, T/C [16]: 88.8%; viability, T/C [17]: 93.7%; viability, T/C [18]: 62.8%; viability, T/C [19]: 91.9%; viability, T/C [20]: 97.3%; viability, T/C [21]: 119%; viability, T/C [22]: 63.8%; viability, T/C [23]: 91.6%; viability, T/C [24]: 56.8%; viability, T/C [25]: 87.1%; viability, T/C [26]: 87.4%; viability, T/C [27]: 95.5%; viability, T/C [28]: 71.5%; viability, T/C [29]: 85.6%; viability, T/C [30]: 44.4%; viability, T/C [31]: 97.9%; viability, T/C [32]: 97.5%; viability, T/C [33]: 76.3%; viability, T/C [34]: 61.6%; viability, T/C [35]: 71.9%; viability, T/C [36]: 49.2%
